Drawing on PubChem BioAssay (NCI), this text covers TGI for 13 molecules.

Holding throughout (assay): NCI-60 cell line screen, 48 h
Assay [1] relates to A549 NSCLC.
Assay [2] concerns CAKI-1 renal.
In assay [3] the test system is DU-145 prostate.
Assay [4] deals with EKVX NSCLC.
Assay [5] relates to HCC-2998 colon.
Assay [6] has as its system HL-60(TB) leukemia.
Assay [7] has as its system HOP-92 NSCLC.
In assay [8] the test system is KM12 colon.
Assay [9] concerns NCI-H460 lung.
The test system of assay [10] is NCI-H522 lung.
The subject of assay [11] is OVCAR-8 ovarian.
Assay [12] deals with SF-539 CNS.
Assay [13] has as its system SK-MEL-5 melanoma.
For assay [14], the system named is SK-OV-3 ovarian.
Assay [15] concerns U251 CNS.
The test system of assay [16] is UACC-62 melanoma.
Assay [17] has as its system HS 578T breast.
Assay [18] relates to SK-MEL-28 melanoma.
Assay [19] concerns SNB-19 CNS.

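Each compound was tested at five concentrations against cells in 96-well plates for 48 hours. The concentration for full growth arrest is given as TGI.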

For `CC(=O)Nc1ccc2c3c(cc(O)c2c1)N(C(=O)CCCCCCC(=O)Nc1ccc2c4c(cc(O)c2c1)N(C(=O)OC(C)(C)C)CC4CCl)CC3CCl` (centres undefined), the TGI was over 32.3 µM in assay [1]; 17.2 µM in assay [2]; 0.0587 µM in assay [3]; 1.08 µM in assay [4]; 0.238 µM in assay [5]; 0.241 µM in [6]. Further, the TGI in [7] is 4.11 µM; in [8], 0.804 µM; in [9] it was 0.245 µM; in assay [10], 0.405 µM; in [11] it was over 32.9 µM; in assay [12] it was 0.396 µM. For the same molecule, the TGI in [13] is 0.0783 µM; in assay [14], 23.9 µM; in assay [15], 11 µM; in assay [16] it was 0.219 µM.
For the molecule `Nc1nc(NCc2ccccc2)cc(NCc2ccccc2)n1`, the TGI in assay [1] was 92 µM; in assay [2], 9.74 µM; in assay [4], 41 µM; in [5], 24.6 µM; in [6], over 100 µM; in assay [7] it was 21.5 µM. Further, the TGI in assay [17] is 13.4 µM; in assay [8], 27.9 µM; in assay [9], 32.5 µM; in assay [10], 19.2 µM; in assay [11] it was 17.3 µM; in assay [12], 18.3 µM. For the same molecule, the TGI in [18] is over 100 µM; in assay [13] it was 19.7 µM; in [14], 33.7 µM; in [19], 31 µM; in assay [15] it was 71.2 µM; in assay [16] it was 16.5 µM.
In the case of `Cc1[nH]n(C(=O)Cc2ccccc2)c(=O)c1/C=C1\C(=O)C=Cc2ccccc21`, the TGI in assay [1], in [2], in assay [4], in assay [5], in assay [6] and in assay [8] was over 100 µM throughout. For the same molecule, the TGI is over 100 µM in [9]; over 100 µM in [10]; over 100 µM in assay [11]; 75.2 µM in [12]; over 100 µM in assay [18]; over 100 µM in assay [13]. The TGI in assay [19] is over 100 µM.
Take `CCOC(=O)c1nc2ccccc2nc1Oc1ccc(F)cc1`: the TGI in [1], in assay [3], in assay [4], in assay [7], in assay [17] and in assay [8] was over 100 µM in each case. The TGI in assay [9], in assay [11], in assay [12], in [18], in assay [13] and in assay [14] was over 100 µM throughout. Moreover, the TGI in assay [19], in assay [15] and in [16] was over 100 µM in each case.
Consider `C/C(=C/C(=O)N(C)c1ccccc1Cl)O[Si](C(C)C)(C(C)C)C(C)C`, for which the TGI in assay [1] was over 100 µM; in [2], over 100 µM; in assay [3], over 100 µM; in assay [4] it was 75.3 µM; in assay [7], 31.1 µM; in assay [8], over 100 µM. Further, the TGI was 56.2 µM in [9]; 31.8 µM in assay [10]; 47 µM in assay [11]; 38.3 µM in assay [12]; over 100 µM in assay [18]; 30.8 µM in assay [13]. In addition, the TGI in [14] is over 100 µM; in assay [19], 64.5 µM; in [15], 38.7 µM.
Turning to `CC12CCC(C(=Nc3ccc([N+](=O)[O-])cc3)C1=O)C2(C)C` (centres undefined), the TGI in assay [1] is over 100 µM; in assay [2], over 100 µM; in assay [3], 79.5 µM; in assay [4], over 100 µM; in [5], 38.2 µM; in assay [8], 92.9 µM. Also, the TGI in [9] is over 100 µM; in [11], 55.3 µM; in [12], 42.2 µM; in assay [18], 37.4 µM; in assay [13] it was 90.7 µM; in assay [14] it was over 100 µM. The TGI in assay [19] is over 100 µM; in assay [15], 97.6 µM; in assay [16], over 100 µM.
In the case of `N#CC(C#N)=CNC(=S)Nc1ccc(S(=O)(=O)Nc2nccs2)cc1`, the TGI in assay [1], in [2], in [3], in [4], in assay [5] and in assay [6] was over 100 µM each time. Also, the TGI in assay [7], in [8], in [9], in assay [11], in assay [12] and in assay [18] was over 100 µM each time. Besides, the TGI in assay [13], in [14], in assay [19], in assay [15] and in [16] was over 100 µM in each case.
With `Cc1c(CNc2ccc(Cl)c(Cl)c2Cl)cnc2nc(N)nc(N)c12`, the TGI in [1] was over 41.3 µM; in assay [2] it was over 100 µM; in assay [4], over 69 µM; in assay [5], over 100 µM; in assay [6] it was 15.3 µM; in assay [7], over 62.8 µM. Besides, the TGI in assay [17] was 65.6 µM; in assay [8] it was over 100 µM; in [9], over 48.9 µM; in assay [10], over 45.2 µM; in [11], 1.41 µM; in assay [12] it was 12.2 µM. Besides, the TGI in [18] was 31.7 µM; in assay [14] it was over 52.4 µM; in [19] it was over 59.9 µM; in [15] it was over 46.5 µM; in assay [16], 15.8 µM.
In the case of `O=c1[nH]nc(Nc2ccc(Cl)cc2)c2nnn(-c3ccc([N+](=O)[O-])cc3)c12`, the TGI is 29.1 µM in assay [1]; over 100 µM in assay [2]; 48.6 µM in [3]; over 100 µM in assay [4]; 64.7 µM in assay [5]; over 100 µM in assay [6]. Also, the TGI in assay [7] was 46.9 µM; in [8], over 100 µM; in assay [9], over 100 µM; in assay [10], 18 µM; in assay [11], 48 µM; in assay [12] it was 39.6 µM. Further, the TGI in assay [13] was 22.7 µM; in [19], over 100 µM; in assay [15] it was 46 µM.
As for `CC(=O)O[C@H]1CC[C@@]2(C)C(=CC[C@@H]3[C@@H]2CC[C@]2(C)C(=O)/C(=C\c4ccccc4)C[C@@H]32)C1`, the TGI in assay [1], in assay [2], in assay [3], in assay [4], in assay [5] and in assay [7] was over 100 µM throughout. The TGI in [8], in [9], in assay [10], in assay [11], in assay [12] and in assay [18] was over 100 µM each time. Moreover, the TGI in [13], in assay [14], in assay [19], in [15] and in assay [16] was over 100 µM in each case.
As to `NC(Cc1c2ccccc2cc2ccccc12)C(=O)O` (centres undefined), the TGI in [1], in [2], in assay [3], in [4], in assay [5] and in [6] was over 100 µM each time. For the same molecule, the TGI in assay [7], in assay [8], in [9], in assay [10], in [11] and in assay [12] was over 100 µM throughout. Moreover, the TGI in assay [18], in assay [13], in assay [14], in assay [19], in assay [15] and in [16] was over 100 µM each time.
Consider `CCOc1cc(NC(C)=O)ccc1C(=O)NN1C(=O)/C(=C/c2ccc(Cl)cc2)N=C1c1ccccc1`, for which the TGI was over 100 µM in assay [1]; over 100 µM in [2]; over 100 µM in assay [3]; over 100 µM in assay [4]; 89.6 µM in [6]; over 100 µM in [7]. For the same molecule, the TGI was over 100 µM in assay [8]; over 100 µM in assay [11]; over 100 µM in assay [12]; over 100 µM in assay [18]; 81.3 µM in assay [13]; over 100 µM in assay [14]. Moreover, the TGI in assay [19] and in [15] was over 100 µM throughout.
For the molecule `O=C(c1ccccc1)N1N=C(C(F)(F)F)CC1(O)C(F)(F)F` (centres undefined), the TGI in assay [1], in assay [3], in assay [4], in [5], in assay [6] and in [17] was over 100 µM in each case. The TGI in [8], in assay [9], in [10], in assay [11], in assay [12] and in assay [18] was over 100 µM throughout. For the same molecule, the TGI in [19] and in assay [15] was over 100 µM each time.
